# Key:
# Assay in all cases: Phenotype microarray metabolic activity
# Type in all cases: cell-based
# Veillonella parvula = conditions: V parvula
# Protocol: (§1) The extent of metabolic activity of the tested bacteria in the presence of the above-mentioned saccharides after 24 hours and 48 hours was investigated through a high throughput phenotype microarray system (PM) for microbial cells (Biolog Inc.). Each PM can contain up to 95 different biochemical compounds (e.g. saccharides) that may act as substrates for bacteria as well as one negative control, not containing the substrates. Microarray plates were used in which the different wells of each plate were pre-loaded (by the manufacturer, Biolog Inc.) with different saccharides to be tested. Each bacterial species was tested using a separate microarray plate. Thus, a single bacterial species was tested with a variety of saccharides on each particular plate. The microarrays are based on redox technology, using cell respiration as a universal reporter. Active cell respiration results in the reduction of a tetrazolium dye and in the formation of a strong color—for example, when using the tetrazolium dye “Biolog Redox Dye Mix D”, the color changes from transparent/colorless to purple when the dye is reduced. The observation of this color change indicates which of the substrates improve the metabolic activity and health of the cells.
# (§2) Each bacterial species was collected from blood agar plates (incubated for 48 hours anaerobically at 37° C.) and transferred to an IF-0 Base inoculation fluid (Biolog Inc.), which is a nutritionally poor medium. The resulting cell suspension was adjusted to a transmittance of 42% (relative to the transmittance of the base inoculation fluid with no bacterial species present) at 492 nm using a BioRad SmartSpec 3000 Photometer (the adjustment being effected by adding either further inoculation fluid or further bacteria until the transmittance of 42% was achieved). A 1:5 dilution of this suspension was prepared by mixing 3 mL of the 42% transmittance cell suspension with 15 mL of an inoculation fluid (which inoculation fluid was formed by mixing 11.6 mL sterile water, 62.5 mL IF-0 base inoculation fluid and 0.9 mL of the tetrazolium dye “Biolog Redox Dye mix D”), resulting in a final cell density which was equal to 85% transmittance using a BioRad SmartSpec 3000 Photometer. For each of the saccharides tested, the microarray plate (obtained from the supplier (Biolog Inc.) with saccharides already present in the relevant wells in powder form) was directly inoculated with 100 μL/well of this 85% transmittance cell suspension.
# (§3) All plates were incubated in an anaerobic atmosphere at 37° C. Color changes were measured spectrophotometrically at 492 nm (Thermo Scientific Multiskan Ascent) at 24 hrs and 48 hrs using the same plate at both time points. […] After 24 hrs and 48 hrs under continuous shaking in a Multiscan microplate reader, the optical density (OD) of the synthetic medium at 24 hours and 48 hours was measured (using the microplate reader) at a wavelength of 492 nm for each combination of bacterium/saccharide, and for each of their respective controls (i.e. which contained the particular bacterium but no saccharide).
# (§4) The experiment was carried out three times for each combination of bacterium with saccharide, with each repeat being carried out on a different day (thus providing three biological replicas). The controls were also carried out three times, as above. The values shown are the average (mean) of the three single values obtained (as detailed above) for each combination of bacterium with saccharide, at 24 hrs and at 48 hrs.
# Streptococcus mutans = conditions: S mutans
# Protocol: as §1, §2, §3, §4
# Prevotella intermedia = conditions: P intermedia
# Protocol: as §1, §2, §3, §4
# Streptococcus sobrinus = conditions: S sobrinus
# Protocol: as §1, §2, §3, §4
# Porphyromonas gingivalis = conditions: P gingivalis
# Protocol: as §1, §2, §3, §4
# Streptococcus salivarius = conditions: S salivarius
# Protocol: as §1, §2, §3, §4
# Streptococcus gordonii = conditions: S gordonii
# Protocol: as §1, §2, §3, §4
# Actinomyces viscosus = conditions: A viscosus
# Protocol: as §1, §2, §3, §4
# Tannerella forsythia = conditions: T forsythia
# Protocol: as §1, §2, §3, §4
# Streptococcus mitis = conditions: S mitis
# Protocol: as §1, §2, §3, §4
# Fusobacterium nucleatum = conditions: F nucleatum
# Protocol: as §1, §2, §3, §4
# Capnocytophaga sputigena = conditions: C sputigena
# Protocol: as §1, §2, §3, §4
# Actinomyces naeslundii = conditions: A naeslundii
# Protocol: as §1, §2, §3, §4
# S sanguinis = system: S sanguinis
# Protocol: as §1, §2, §3, §4
# [1] = system: Aggregatibacter actinomycetemcomitans; conditions: A actinomycetemcomitans
# Protocol: as §1, §2, §3, §4
smiles,measurement,setting,value
"OC[C@H]1O[C@@](O)(CO)[C@@H](O[C@H]2O[C@H](CO)[C@@H](O)[C@H](O)[C@H]2O)[C@@H]1O [D-Turanose, α-D-glucopyranosyl-(1→3)-α-D-fructofuranose]",metabolic activity: OD 492 nm divided by OD of control (control = 1),Veillonella parvula; 24 hrs,0.8743
same,metabolic activity: OD 492 nm divided by OD of control (control = 1),Veillonella parvula; 48 hrs,0.7770
same,metabolic activity: OD 492 nm divided by OD of control (control = 1),Streptococcus mutans; 24 hrs,1.4769
same,metabolic activity: OD 492 nm divided by OD of control (control = 1),Streptococcus mutans; 48 hrs,2.1955
same,metabolic activity: OD 492 nm divided by OD of control (control = 1),Prevotella intermedia; 24 hrs,1.1121
same,metabolic activity: OD 492 nm divided by OD of control (control = 1),Prevotella intermedia; 48 hrs,1.2058
same,metabolic activity: OD 492 nm divided by OD of control (control = 1),Streptococcus sobrinus; 24 hrs,1.6552
same,metabolic activity: OD 492 nm divided by OD of control (control = 1),Streptococcus sobrinus; 48 hrs,1.8299
same,metabolic activity: OD 492 nm divided by OD of control (control = 1),Porphyromonas gingivalis; 24 hrs,0.8165
same,metabolic activity: OD 492 nm divided by OD of control (control = 1),Porphyromonas gingivalis; 48 hrs,0.7822
same,metabolic activity: OD 492 nm divided by OD of control (control = 1),Streptococcus salivarius; 24 hrs,1.1489
same,metabolic activity: OD 492 nm divided by OD of control (control = 1),Streptococcus salivarius; 48 hrs,1.2834
same,metabolic activity: OD 492 nm divided by OD of control (control = 1),Streptococcus gordonii; 24 hrs,1.7899
same,metabolic activity: OD 492 nm divided by OD of control (control = 1),Streptococcus gordonii; 48 hrs,2.1615
same,metabolic activity: OD 492 nm divided by OD of control (control = 1),Actinomyces viscosus; 24 hrs,2.2260
same,metabolic activity: OD 492 nm divided by OD of control (control = 1),Actinomyces viscosus; 48 hrs,3.0809
same,metabolic activity: OD 492 nm divided by OD of control (control = 1),Tannerella forsythia; 24 hrs,1.0435
same,metabolic activity: OD 492 nm divided by OD of control (control = 1),Tannerella forsythia; 48 hrs,1.1254
same,metabolic activity: OD 492 nm divided by OD of control (control = 1),Streptococcus mitis; 24 hrs,1.2969
same,metabolic activity: OD 492 nm divided by OD of control (control = 1),Streptococcus mitis; 48 hrs,1.3856
same,metabolic activity: OD 492 nm divided by OD of control (control = 1),Fusobacterium nucleatum; 24 hrs,1.3517
same,metabolic activity: OD 492 nm divided by OD of control (control = 1),Fusobacterium nucleatum; 48 hrs,1.6086
same,metabolic activity: OD 492 nm divided by OD of control (control = 1),Capnocytophaga sputigena; 24 hrs,0.9893
same,metabolic activity: OD 492 nm divided by OD of control (control = 1),Capnocytophaga sputigena; 48 hrs,1.0899
same,metabolic activity: OD 492 nm divided by OD of control (control = 1),Actinomyces naeslundii; 24 hrs,2.1636
same,metabolic activity: OD 492 nm divided by OD of control (control = 1),Actinomyces naeslundii; 48 hrs,2.7551
same,metabolic activity: OD 492 nm divided by OD of control (control = 1),S sanguinis; 24 hrs,1.3458
same,metabolic activity: OD 492 nm divided by OD of control (control = 1),S sanguinis; 48 hrs,1.5207
same,metabolic activity: OD 492 nm divided by OD of control (control = 1),[1]; 24 hrs,1.0170
same,metabolic activity: OD 492 nm divided by OD of control (control = 1),[1]; 48 hrs,1.2549
